Reference: US20140255432A1, “SILVESTROL, SILVESTROL ANALOGS AND USES THEREOF” (priority 2011, published 2014)

Legend:
[1] = test system: EBV LMP-1 oncogene transcript; assay: EBV LMP-1 oncogene transcript expression in LCL; assay type: cell-based, Epstein-Barr virus; conditions: three cell lines; days 1, 3, 5 (FIG. 46)
Excerpt: (§1) FIG. 41 presents data regarding NK cytotoxicity of K562 cells. […] FIG. 42 presents data regarding the cytotoxicity of LCLs pretreated with BZLF 1. […] BZLF1 antigen pulsed LCLs promoted enhanced killing in untreated and silvestrol-treated CTLs. FIG. 43 presents data relating to CD4 IFNgamma release with LCL pretreated with BZLF1. […] FIG. 44 presents data relating to CD4 IFNgamma release with LCL pretreated with BZLF 1. […] FIG. 45 presents data relating to interleukin-6 induction by silvestrol. […] FIG. 46 presents data relating to a change in LMP-1 expression following silvestrol treatment. […] Three cell lines were examined on days 1, 3, and 5 following treatment. FIG. 47 presents data relating to a change in EBNA1 expression following silvestrol treatment. Three cell lines were examined on days 1, 3, and 5 following treatment.

[2] = test system: STAT1, STAT3, AKT and NF-κB p65; assay: Immunoblot of LMP-1 downstream pathways in LCL; assay type: cell-based, human
Description: (§2) Cells were harvested and lysed as described (Alinari 2011). Following collection of whole cell lysates, equal amounts of protein were resolved by SDS-PAGE and transferred onto a PVDF membrane (Millipore, Billerica, Mass.). Membrane was probed overnight at 4° C. with β-actin, pSTAT1, pSTAT3, STAT1, STAT3, pAkt, Akt (Cell Signaling Technology, Danvers, Mass.), or LMP-1 (DakoCytomation, Carpinteria, Calif.). After incubation with HRP-conjugated secondary antibody (Cell Signaling Technology), protein was detected with SuperSignal West Pico Chemiluminescent Substrate (Pierce, Rockford, Ill.).
Through its cytoplasmic C-terminal-activating region 1 (CTAR1), LMP-1 constitutively activates multiple pro-survival signaling pathways including NF-κB, PI3K/AKT, and STATs 1 and 3 (Shair 2007; Gires 1999; Dawson 2003; Kung 2008; Kung 2011) similar to an external growth stimulus. Thus, LMP-1 directly and indirectly promotes tumor cell growth and survival through diverse mechanisms. To investigate the effects of silvestrol on these pathways, LCLs were incubated for 24, 72, and 120 hr with vehicle or 10 nM silvestrol, and cell extracts were analyzed by immunoblot. […] Using the same treatment conditions, a decrease in the levels of both total Akt and its activated, phosphorylated form was observed. […] Total levels of NF-κB proteins such as p50, p105, and IKBa were unchanged (left panel), as were Bcl2 family proteins such as Bcl2, Mel1, and Bax (right panel) (FIG. 36).

[3] = Pharmacokinetics work in mice; assay type: in vivo
[4] = test system: K562 cells; assay: NK cytotoxicity of K562 cells; assay type: cell-based; conditions: 10 nM (FIG. 41)
Excerpt: as §1

[5] = test system: interleukin-6; assay: Real-time RT-PCR for NF-κB targets in LCL; assay type: cell-based, human; conditions: 10 nM in LCL (FIG. 45)
Excerpt: as §1

[6] = test system: EBNA2, EBNA3C, BZLF1; assay: Immunoblot of other EBV proteins in LCL; assay type: cell-based, Epstein-Barr virus; conditions: FIG. 3C
Description: as §2
Whole cell protein levels of LMP-1 was evaluated by immunoblot 72 hr after treating with a single dose (10 nM) of silvestrol in seven LCL lines (FIG. 3A). β-actin was included as a loading control. In FIG. 3B, LCL were incubated 24, 72, and 120 hr in the presence of 10 nM silvestrol or vehicle control. Whole cell lysates were immunoblotted for LMP-1. Results are representative of 3 LCL lines. […] Decreases in other latent gene products involved with EBV-driven B cell transformation were observed as well. In FIG. 3D, LCL were incubated as in FIG. 3B and immunoblotted for STAT1, STAT3, AKT and NF-κB p65.

[7] = test system: EBV-LPD; assay: hu-PBL-SCID model of EBV-LPD; assay type: in vivo, SCID mice
Description: Six week-old female SCID mice (n=28) received anti-asialo antisera prior to engraftment to deplete murine NK cells. Mice were engrafted intraperitoneally with 5×10^7 peripheral blood mononuclear cells (PBMCs) obtained from EBV-positive, healthy donor. Untreated mice in this model develop lethal disseminated (human) lymphoma; median survival varies by PBMC donor for that experiment. Two weeks post-engraftment, treatments were initiated with either vehicle (30% HBPCD) or vehicle+silvestrol (1.5 mg/kg every 48 hrs; n=14 each). 4 and 8 weeks post-engraftment, 2 mice from each group were sacrificed for examination and blood was drawn from all mice to assess human IgG levels (FIG. 23). The remainder of mice (n=10 each) were followed for survival. Survival is defined as absence of IACUC-approved euthanasia criteria (in this model, typically this is weight loss >20%, together with labored breathing and cessation of grooming).
The Hu-PBL-SCID mouse model has been described (Mosier 1992). Human PBMCs were obtained from a healthy EBV seropositive donor. 5×10^7 cells were injected intraperitoneally (IP) into 6 week-old female SCID mice (Taconic) that were NK cell-depleted by pretreatment with anti-asialo (GM1) (Wako Pure Chemical Industries, Richmond, Va.). Engraftment was confirmed by hu-IgG ELISA from serum as described (Baiocchi 1994). Silvestrol treatment began two weeks post-engraftment.
The hu-PBL SCID model has been used to study the effect of compounds on spontaneously derived EBV-driven lymphomas (Fuzzati-Armentero 1998). PBMC from a healthy EBV-positive donor were injected into a group of SCID mice that had been pretreated with anti-asialo (GM1) to deplete murine NK cells. Mice were randomized (n=14/group) and treatment with 1.5 mg/kg silvestrol or vehicle control every 48 hr began two weeks after engraftment. Two weeks after treatment began (four weeks post-engraftment), an ELISA was performed to evaluate human IgG. […] At 4 and 8 weeks post-engraftment, flow cytometry analysis was performed on spleen cells from two mice in each group. […] Spleens were also obtained from mice as the disease progressed and euthanasia criteria were met. […] During the 140-day experiment, the health of the mice was tracked by body weight. Weights of all mice were checked twice weekly.

[8] = 1.5 mg/kg every 48 hr, 140-day experiment

COC(=O)[C@H]1[C@@H](O)[C@@]2(O)c3c(OC)cc(O[C@@H]4O[C@@H]([C@H](O)CO)CO[C@H]4OC)cc3O[C@@]2(c2ccc(OC)cc2)[C@@H]1c1ccccc1 [silvestrol]
expression of the EBV LMP-1 oncogene transcript [1]: decreased | phosphorylated (activated) STAT1 level ([2]; 10 nM, 24, 72, 120 hr): decreased | phosphorylated (activated) STAT3 level ([2]; 10 nM, 24, 72, 120 hr): decreased | phosphorylated Akt level ([2]; 10 nM, 24, 72, 120 hr): a decrease | total Akt level ([2]; 10 nM, 24, 72, 120 hr): a decrease | total STAT1 level ([2]; 10 nM, 24, 72, 120 hr): remained unchanged | total STAT3 level ([2]; 10 nM, 24, 72, 120 hr): remained unchanged | total p65 levels ([2]; 10 nM, 24, 72, 120 hr): relatively unchanged | total levels of NF-κB proteins p50, p105, IKBa ([2]; FIG. 36 left panel): unchanged | Bcl2 family proteins Bcl2, Mcl1, Bax ([2]; FIG. 36 right panel): unchanged | concentration attainable in vivo [3]: 10 nM | direct killing of K562 cells by NK cells [4]: not adversely affected | interleukin-6 expression [5]: induced | EBNA2 and EBNA3C proteins [6]: affected | expression of BZLF1 [6]: did not affect | signs of disease at the end of the study (flow cytometry of spleen cells) ([7]; 1.5 mg/kg every 48 hr): no signs of disease | engraftment of human PBMCs (human immunoglobulin production) ([7]; 1.5 mg/kg every 48 hr (FIG. 23)): did not affect engraftment | EBV-LPD infiltration of the spleen (flow cytometry) ([7]; 1.5 mg/kg every 48 hr, 4 and 8 weeks post-engraftment): no tumor burden | body weight compared to vehicle-treated mice [7, 8]: gain weight at a faster pace | ill effects from long-term treatment [7, 8]: did not show observable ill effects | mean spleen weight ([7]; 1.5 mg/kg every 48 hr, after completion of the experiment at day 140): 72.9 mg | production of human IgG by xenografted B-lymphocytes ([7]; 1.5 mg/kg every 48 hr, four weeks post-engraftment): did not affect | mice alive at day 140 (overall survival) ([7]; 1.5 mg/kg every 48 hr, p<0.001 vs. vehicle): 7/7
